In patent publication US20060205749A1, “Remedy and/or preventive for lung diseases” (priority 2003, published 2006):

What was measured:
[1] = tested on: neutrophils in BALF, lipopolysaccharide (LPS)-induced pulmonary injury model; assay: Inhibitory effect on increase of neutrophils in LPS-induced pulmonary injury model; assay type: in vivo; conditions: male BALB/c mice, 0.1 mg/body intratracheally together with LPS, BAL 6 hours after administration
Procedure: Physiological saline containing 25% Alevaire (registered trademark, Azwell Inc., Osaka) which is an inhalant for respiratory organs (administration solvent), or administration solvent dissolving 300 ng/mL of LPS (manufactured by Sigma-Aldrich, Mo., USA) were administered intratracheally to 9-week-old male BALB/c mice (Charles River Japan, Kanagawa) in an amount of 0.1 mL respectively. Then bronchoalveolar lavages (BALS) were performed 6 hours after the intratracheal administration (These administration groups were referred to as a “solvent administration group” and an “LPS administration group”, respectively). […]
The recovered bronchoalveolar lavage fluids (BALFS) were centrifuged at 570×g for 10 minutes at 4° C., followed by removal of supernatants to obtain pellets. […] The total numbers of leukocytes were counted with an automatic blood cell counter Celltac α (Nihon Kohden Corporation, Tokyo). […] Then, the numbers of cells were counted under a microscope (400×).
The number of cells was counted up to 300 in total while macrophages, neutrophils and lymphocytes were distinguished. Then, the ratio of each cell was calculated (equation 1). The number of neutrophils was calculated from the ratio of neutrophils and the total number of leukocytes (equation 2). The inhibition ratio of the increase in number of neutrophils by the administration of Compound (I) was calculated by equation 3. […]

[2] = tested on: neutrophils in BALF, mainstream of cigarette smoke induced pulmonary injury model; assay: Inhibitory effect on increase of neutrophils in mainstream of cigarette smoke induced pulmonary injury model; assay type: in vivo; conditions: male CD rats, 0.3 mg/body orally 10 to 12 hours before exposure to mainstream of cigarette smoke, BAL after the exposure for 6 hours
Procedure: Compound (I) was suspended to the concentration of 0.6 mg/mL in a physiological saline containing 25% Alevaire (registered trademark, Azwell, Osaka), which is an inhalant for respiratory organs, (administration solvent). The suspension was used for the test. The suspension is referred to as a “suspension for the administration of Compound (I)”.
First, 0.5 mL of the administration solvent or the suspension for the administration of Compound (I) per kilogram of body weight was administered orally to male CD rats aged 6 to 7 weeks (Charles River Japan, Kanagawa). After 10 to 12 hours, the rats were systemically exposed to mainstream of cigarette smoke (Hi-Lite, Japan Tobacco Inc., Tokyo) using a smoking exposure instrument (M•I•P•S, Osaka). The exposure to the mainstream of cigarette smoke for 5 minutes and then exposure to air for 10 minutes were successively performed by repeating them eight times.
A group subjected to the administration of the administration solvent and exposure to air instead of mainstream of cigarette smoke is referred to as a “solvent administration group”. […]
After the exposure for 6 hours, BALs were performed with Hanks' solution [Hanks' Balanced Salt Solution (Invitrogen Corporation, CA, USA)] […] All of the BALFs were recovered and subjected to treatment as in Test example 1, and then the numbers of neutrophils were measured. […]

COc1ccc(C(=O)Cc2c(Cl)cncc2Cl)c2c1OC1(CCCC1)O2 [Compound (I), 7-[2-(3,5-dichloro-4-pyridyl)-1-oxoethyl]-4-methoxy-spiro[1,3-benzodioxol-2,1′-cyclopentane]]
Number of neutrophils ([1]; mean ± standard error): 0.72 ± 0.22 ×10^5 cells/BALF | Inhibition ratio of increase in number of neutrophils ([1]; equation 3): 47% | Inhibition ratio of increase in number of neutrophil [2]: 81% | Number of neutrophils ([2]; mean ± standard error): 0.34 ± 0.13 ×10^5 cells/BALF
